Data published in patent US12415939B2, “Nano-adhesive and surface primer compound and use thereof” (The Regents of the University of California, priority 2015, dated 2025).
Each block holds one compound with its values, some of them ahead of it.

What was measured:
[1] = Cyclic voltammetry of catechol oxidation; type: physicochemical; conditions: DI water, scan rate 1 mV s−1, Ag/AgCl reference
Description: (§1) Cyclic voltammetry was performed on a Versastat 3 potentiostat from Ametek Co. These analyses were carried out using a three-electrode cell: a Pt wire as the counter electrode, an Ag/AgCl reference electrode, and a Carbon paste electrode (CPE) served as the working electrode. CPE is the best choice for adhesive materials because of its ability to be completely polished before each experiment. Catechol auto-oxidation was avoided by performing all electrochemical experiments with degassed deionized water in a glove bag under argon. Scan rate 1 mV s-1 was used for all experiments. CV of 5 mM synthesized polymers and 5 mM methyl catechol, a simple catechol-containing compound, were compared. Oxidation of Catechol carrying molecules occurred at more positive potentials than methyl catechol, indicating the unique structure of the dispersions provide shielding effects that stabilized catechol groups (FIG. 3).
Cyclic voltammetry was performed on a Versastat 3 potentiostat from Ametek Co. (Berwyn, PA). These analyses were carried out using a three-electrode cell: a Pt wire as the counter electrode, an Ag/AgCl reference electrode, and a Carbon paste electrode (CPE) served as the working electrode. CPE is the best choice for adhesive materials because of its ability to be completely polished before each experiment.
as §1, with “s^−1” for “s-1”, “molecules” for “polymers”, “groups. Z-Cat-Ben with an oxidation peak at 840 mV is more resistant to oxidation than the other species” for “groups”, “42).” for “3).”

[2] = Lap shear test of cured PMA resin on primed tooth enamel; parameters: species or system human
Description: 1 wt % primer solution was spread on mica, glass, tooth enamel, or a silicon wafer and incubated for 1 min, followed by thorough washing with methanol (for MDP, P1-P3) or DMSO (for P4) and drying by flowing nitrogen. The surfaces were exposed to a basic aqueous solution (pH 9, using sodium hydroxide), incubated for 1 min, and drying by flowing nitrogen (see FIG. 52). The methacrylic comonomer blend (Bis-GMA, TEGDMA, DMAEMA and CQ) was packed in a gelatin capsule (size #4, 5-mm diameter, Torpac Inc.) and placed up on top of the primer-treated substrates. The comonomer blend was cured (or crosslinked) for 1 min using a portable dental curing lamp (Foshan Liang Ya Dental Co., LY-A180, 420-480 nm, 1200-2000 mW·cm^−2) (see FIG. 53). Uniaxial compression was applied to the capsule at a rate of 0.05 inch min^−1 using a materials testing system (MTS Bionix 200) until the capsules are separated from the substrate. The lap shear fracture measurements were repeated at least 10 times for each condition.

[3] = QCM-D adsorption of primers; type: physicochemical; conditions: for surface concentration of adsorbed layer: Sauerbrey, after rinsing
Description: A ‘static cell’ (often called ‘Open Module’) QCM-D (Q-Sense, Biolin Scientific) was employed to quantitatively evaluate the adsorption of each primer onto SiO2 surface using a quartz sensor (QSX 303, Biolin Scientific). Changes in resonance frequency (ΔF) and dissipation (ΔD) of the SiO2 were recorded and used to measure the adsorbed mass and layer viscoelasticity, respectively, of the primer deposited on the sensor. In detail, pure solvent (100 μl) was dropped onto the sensor and equilibrated for ˜20-30 min. Then, 2 wt % primer solution (100 μl) was dropped onto the sensor (this is labeled “Solution Drop-in” in FIG. 51) and equilibrated until the frequency and dissipation signals stabilized. To remove unbound primers, the sensor was rinsed with solvents (this is labeled “Solvent Rinsing” in FIG. 51) and equilibrated until frequency and dissipation signals stabilized.
Mass loss of P3 and P4 during the rinsing was negligible compared to P2 which lost 60% of initial mass, indicating outstanding adsorption efficiency of catechol-containing primers on SiO2 surfaces even compared to mussel foot protein adsorption (˜30% loss of mfp-3s^3). The priming thickness of P4 estimated by QCM-D is ˜3.1 nm which agrees with the average height of AFM images (˜3.5 nm), assuming that QCM-D measures the average thickness of a uniform layer. The smaller average thickness of P4 (˜3.1 nm) compared to the molecular contour length (˜4.8 nm) may be attributed to the flexible alkyl spacer in P4. The possibility of a softer, more flexible layer with P4 is supported by a higher change in dissipation (ΔD) compared to other primers.

[4] = SFA adhesion of cured PMA resin between primer-treated mica surfaces
Description: Atomically-smooth muscovite mica sheets were freshly cleaved (thickness of 2-5 μm) and attached on another large freshly cleaved mica backing sheet under a laminar flow hood and placed in a desiccator for clean storage. To ensure use of a fresh surface for each experiment, mica was peeled away from the backing sheet and glued on cylindrical disks using an epoxy glue (EPON 1004 F® from Exxon Chemicals). In each experiment, the mica surfaces were treated with one of the primer solutions, as described for the lap shear experiments, and then mounted in the SFA in a cross cylindrical geometry. In contrast to typical SFA experiments, which use an interferometric method to calculate the disk-disk separation distances and thus the interaction forces, in the SFA used here for adhesion testing, the disk separations were directly measured using semiconductor strain-gauged double cantilever springs (k=1000-10000 N/m)(see FIG. 67). After separating the surfaces, 100 […]1 of comonomer blend was injected between the two surfaces. Then, ˜600 mN of load was applied, followed by visible light curing for 1 min using the portable dental curing lamp (see FIG. 54G). Adhesion strength of cured polymer toward the mica was measured by detaching (unloading) two surfaces. All loading and unloading were performed using a coarse micrometer at the velocity of […]. The SFA measurements were repeated at least 5 times for each condition.

[5] = Surface forces apparatus (SFA) cohesion/adhesion between thin films on mica; type: physicochemical; conditions: for cohesion (or adhesion) energy Wc: symmetric films adsorbed from 5 mM, DI water
Description: The interaction between two surfaces can be measured with nano-Newton level force resolution and Angstrom level resolution in the separation distance between the surfaces. The details of the SFA techniques have been describe in a work by Israelachvili et al. In a typical SFA experiment (FIG. 2C), the distance and the force between the surfaces are measured simultaneously. To begin with, the instrument is calibrated at large separation distances. When the two surfaces are not interacting, i.e., they are separated by large distances, the change in the separation between them is equal to the distance through which the motor moves the lower surface towards or away from the upper surface (or the upper surface driven by the piezo-tube moves towards the lower surface). However, once the surfaces are close enough to start interacting with each other, the measured separation distance deviates from the expected separation calibrated when there is no force between the surfaces. This deviation is due to the deflection of the double cantilever spring and is directly proportional to the force acting normally between the two opposing surfaces. Thus the normal force can be measured using Hooke's law, F=kΔx, where k is the spring constant of the double-cantilever spring and Δx=Dactual−Dapplied is the deflection of the spring, determined by taking the difference between the applied change in position of one of the surfaces Dapplied and the actual change in distance measured between the surfaces Dactual. The actual distance, Dactual, between the surfaces can be measured by multiple beam interferometry (MBI) and will be discussed below.
The distance between the surfaces, shape of the interface and the refractive index of the media between the surfaces can be accurately determined by Multiple Beam Interferometry (MBI) technique. In this technique, white light is directed through two back-silvered mica surfaces (or uniform and same thickness). As a white light passes between the mica surfaces, it undergoes interference due to the optical trap set up by the back silver on each of these surfaces giving rise to discrete wavelengths of light (FIG. 2C). These wavelengths of light are resolved in a spectrometer creating interference fringes known as ‘fringes of equal chromatic order’ (FECO). Since mica is birefringent, the FECO appears as doublets and termed as β and γ. Alternate fringes are termed as odd and even fringes with odd fringes having nodes at the center and even fringes with anti-nodes in the center. The FECO is then recorded on a camera and analyzed to determine the distance between the surfaces using the following equations: […]
The adhesion/cohesion energy of the synthetic zwitterionic molecules was investigated in SFA (SurForce LLC, Santa Barbara, CA). Two molecularly smooth freshly cleaved back silvered mica surfaces glued on cylindrical silica discs of radius of curvature, R˜2 cm, were mounted in the SFA and 50 μL of a colloidal dispersion of the synthetic molecules in DI water were injected between the surfaces at different concentrations (C=0.5-5 mM) and the forces between the thin films of the molecules were measured by Multiple Beam Interferometry (MBI). The adhesion forces between Z-Cat-C10 molecules on various surfaces, e.g., silica and copper, were also measured by AFM (MFP-3D, Asylum research, Goleta, CA) in DI water and ambient conditions, respectively, at room temperature. AFM probes with a silicon dioxide particle (10, 5, and 1 μm, respectively) on a silicon nitride (SN) cantilever-0.6 N m^−1 were purchased from Novascan Technologies, Inc (Ames, IA). Cantilever spring constants were measured for each force run. Images of Z-Cat-C10 coating on silicon wafer and copper plates were visualized in an AFM. […]

- E1/2 [1]: ~0.12 V
- E1/2 ([1]; listed as methyl catechol): 0.124 V
SMILES: Cc1ccc(O)c(O)c1 [4-methylcatechol, reference compound]

SMILES: C=C(C)C(=O)OCCCCCCCCCCOP(=O)(O)O [MDP, 10-methacryloyloxydecyl dihydrogen phosphate, reference compound]
- lap shear strength σshear,max [2]: 3.1±0.2 MPa

- surface concentration of adsorbed layer [3]: 0 ng/cm^2
SMILES: C=CC(=O)OCc1ccccc1 [P1, Benzyl acrylate, reference compound]
- lap shear strength σshear,max [2]: no increase in the lap shear strength
- increase in adhesion vs plain mica (no primer) [4]: no increase in adhesion

- surface concentration of adsorbed layer [3]: 230 ng/cm^2
- mass loss during rinsing ([3]; of initial mass): 60%
SMILES: C=CC(=O)OCc1ccc(O)cc1 [P2, 4-Hydroxybenzyl acrylate]
- lap shear strength σshear,max [2]: no increase in the lap shear strength
- increase in adhesion vs plain mica (no primer) [4]: no increase in adhesion

- film (hard-wall) thickness ([5]; deposited at 0.5 mM in DI water): 2 nm
- hard-wall thickness ([5]; films adsorbed from 5 mM, mica): ~5 nm
SMILES: CN(C)CCOP(=O)(O)OCCCc1ccccc1 [Z-Ben-C8]
- cohesion (or adhesion) energy Wc ([5]; mica): without cohesive tendencies

SMILES: CN(C)CCOP(=O)(O)OCCCc1ccc(O)c(O)c1 [Z-Cat-C4]
- cohesion (or adhesion) energy Wc ([5]; mica): 19.2±2.4 mJ m^−2

SMILES: CN(C)CCOP(=O)(O)OCCCc1ccc(O)c(O)c1 [Z-Cat-C6]
- cohesion (or adhesion) energy Wc ([5]; mica): 9.6±1.1 mJ m^−2

SMILES: CN(C)CCOP(=O)(O)OCCCc1ccc(O)c(O)c1 [Z-Cat-C8]
- interaction energy ([5]; 0.5 mM concentration): ~22 mJ m^−2
- cohesion (or adhesion) energy Wc ([5]; mica): 2.5±0.3 mJ m^−2
